Test results as given in PubChem BioAssay (NCI).
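All cell lines were grown in 96-well plates and treated with compound for 48 hours. TGI is the concentration that stops growth completely.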

Legend:
Assay in all cases: inhibition of tumour cell growth, NCI panel, 48 h
SR leukemia = tested on: SR leukemia
ACHN renal = tested on: ACHN renal
HCT-15 colon = tested on: HCT-15 colon
SK-MEL-5 melanoma = tested on: SK-MEL-5 melanoma
OVCAR-8 ovarian = tested on: OVCAR-8 ovarian
DMS 273 small cell lung = tested on: DMS 273 small cell lung
OVCAR-4 ovarian = tested on: OVCAR-4 ovarian
SNB-19 CNS = tested on: SNB-19 CNS
OVCAR-3 ovarian = tested on: OVCAR-3 ovarian
K-562 leukemia = tested on: K-562 leukemia
UACC-257 melanoma = tested on: UACC-257 melanoma
LOX IMVI melanoma = tested on: LOX IMVI melanoma
SW-620 colon = tested on: SW-620 colon
HOP-18 NSCLC = tested on: HOP-18 NSCLC
NCI-H460 lung = tested on: NCI-H460 lung
KM12 colon = tested on: KM12 colon
SF-295 CNS = tested on: SF-295 CNS
BT-549 breast = tested on: BT-549 breast
MOLT-4 leukemia = tested on: MOLT-4 leukemia
UO-31 renal = tested on: UO-31 renal
HOP-62 NSCLC = tested on: HOP-62 NSCLC
HOP-92 NSCLC = tested on: HOP-92 NSCLC
SK-MEL-28 melanoma = tested on: SK-MEL-28 melanoma
MDA-MB-231 breast = tested on: MDA-MB-231 breast
IGROV1 ovarian = tested on: IGROV1 ovarian
EKVX NSCLC = tested on: EKVX NSCLC
COLO 205 colon = tested on: COLO 205 colon
MALME-3M melanoma = tested on: MALME-3M melanoma
LXFL 529 NSCLC = tested on: LXFL 529 NSCLC
RXF 393 renal = tested on: RXF 393 renal
SF-539 CNS = tested on: SF-539 CNS
HT29 colon = tested on: HT29 colon
SNB-75 CNS = tested on: SNB-75 CNS
SF-268 CNS = tested on: SF-268 CNS
TK-10 renal = tested on: TK-10 renal
HCT-116 colon = tested on: HCT-116 colon
A549 NSCLC = tested on: A549 NSCLC
KM20L2 colon = tested on: KM20L2 colon
M19-MEL melanoma = tested on: M19-MEL melanoma
HL-60(TB) leukemia = tested on: HL-60(TB) leukemia
RPMI-8226 leukemia = tested on: RPMI-8226 leukemia
SN12C renal = tested on: SN12C renal
HCC-2998 colon = tested on: HCC-2998 colon
NCI-H522 lung = tested on: NCI-H522 lung
M14 melanoma = tested on: M14 melanoma
U251 CNS = tested on: U251 CNS
UACC-62 melanoma = tested on: UACC-62 melanoma
SK-OV-3 ovarian = tested on: SK-OV-3 ovarian
A498 renal = tested on: A498 renal
DMS 114 small cell lung = tested on: DMS 114 small cell lung
DLD-1 colon = tested on: DLD-1 colon
CAKI-1 renal = tested on: CAKI-1 renal
OVCAR-5 ovarian = tested on: OVCAR-5 ovarian
NCI-H226 lung = tested on: NCI-H226 lung
NCI-H23 lung = tested on: NCI-H23 lung
DU-145 prostate = tested on: DU-145 prostate
PC-3 prostate = tested on: PC-3 prostate
SNB-78 CNS = tested on: SNB-78 CNS
SK-MEL-2 melanoma = tested on: SK-MEL-2 melanoma
CCRF-CEM leukemia = tested on: CCRF-CEM leukemia
XF 498 CNS = tested on: XF 498 CNS
786-0 renal = tested on: 786-0 renal
HS 578T breast = tested on: HS 578T breast
T-47D breast = tested on: T-47D breast

**Q.** What does the source list for `CC[C@@]1(O)C(=O)OCc2c1cc1n(c2=O)Cc2c-1nc1ccccc1c2Cl`?
**A.** TGI (SR leukemia): 0.186 µM; TGI (ACHN renal): 0.0684 µM; TGI (HCT-15 colon): 39.5 µM; TGI (SK-MEL-5 melanoma): 0.134 µM; TGI (OVCAR-8 ovarian): 2.13 µM; TGI (DMS 273 small cell lung): 0.578 µM; TGI (OVCAR-4 ovarian): 4.61 µM; TGI (SNB-19 CNS): 15.5 µM; TGI (OVCAR-3 ovarian): 4.84 µM; TGI (K-562 leukemia): > 100 µM; TGI (UACC-257 melanoma): 7.01 µM; TGI (LOX IMVI melanoma): 0.387 µM; TGI (SW-620 colon): 39.7 µM; TGI (HOP-18 NSCLC): 18.3 µM; TGI (NCI-H460 lung): 0.101 µM; TGI (KM12 colon): 1.83 µM; TGI (SF-295 CNS): 0.511 µM; TGI (BT-549 breast): 4.89 µM; TGI (MOLT-4 leukemia): 0.113 µM; TGI (UO-31 renal): 0.109 µM; TGI (HOP-62 NSCLC): 0.0206 µM; TGI (HOP-92 NSCLC): 2.07 µM; TGI (SK-MEL-28 melanoma): 63.9 µM; TGI (MDA-MB-231 breast): > 80.3 µM; TGI (IGROV1 ovarian): 16 µM; TGI (EKVX NSCLC): 33.6 µM; TGI (COLO 205 colon): 27.4 µM; TGI (MALME-3M melanoma): 12.6 µM; TGI (LXFL 529 NSCLC): 34.7 µM; TGI (RXF 393 renal): 0.116 µM; TGI (SF-539 CNS): 0.022 µM; TGI (HT29 colon): 5.62 µM; TGI (SNB-75 CNS): 0.259 µM; TGI (SF-268 CNS): 12.6 µM; TGI (TK-10 renal): 80.8 µM; TGI (HCT-116 colon): 1.11 µM; TGI (A549 NSCLC): 3.76 µM; TGI (KM20L2 colon): 28.7 µM; TGI (M19-MEL melanoma): 3.43 µM; TGI (HL-60(TB) leukemia): 0.132 µM; TGI (RPMI-8226 leukemia): 1.42 µM; TGI (SN12C renal): 0.683 µM; TGI (HCC-2998 colon): 9.58 µM; TGI (NCI-H522 lung): 1.28 µM; TGI (M14 melanoma): 0.318 µM; TGI (U251 CNS): 0.445 µM; TGI (UACC-62 melanoma): 0.107 µM; TGI (SK-OV-3 ovarian): 4.29 µM; TGI (A498 renal): 0.352 µM; TGI (DMS 114 small cell lung): 2.06 µM; TGI (DLD-1 colon): 63.4 µM; TGI (CAKI-1 renal): 1.99 µM; TGI (OVCAR-5 ovarian): 3.65 µM; TGI (NCI-H226 lung): 0.022 µM; TGI (NCI-H23 lung): 0.028 µM; TGI (DU-145 prostate): 0.104 µM; TGI (PC-3 prostate): > 100 µM; TGI (SNB-78 CNS): 87.5 µM; TGI (SK-MEL-2 melanoma): 7.72 µM; TGI (CCRF-CEM leukemia): 0.172 µM; TGI (XF 498 CNS): 2.15 µM; TGI (786-0 renal): 0.126 µM; TGI (HS 578T breast): 43.3 µM; TGI (T-47D breast): 0.349 µM
